Tests used:
[1] = Influence factor stability test of the crystal form A of the compound of formula (II-1); assay type: physicochemical
Procedure: High humidity (25° C./92.5% RH): 1 g of each sample was weighed and the sample was placed in an open flat weighing bottle (70×35 mm) under 25° C./92.5% RH conditions, and then placed in a comprehensive drug stability chamber (25° C./92.5% RH) for investigation.
High temperature (60° C.): 1 g of each sample was weighed and the sample was placed in an open flat weighing bottle under 60° C. conditions, and then placed in a blast drying oven (60° C.) for investigation.
Illumination: 1 g of each sample was weighed. The samples with illumination condition were placed in a clean watch glass, spread into a thin layer and put into 5000±500 lux (visible light) with 90 μw/cm^2 (UV) conditions for illumination.

[2] = Solid stability test of the crystal form A of the compound of formula (II-1) (XRPD); assay type: physicochemical
Procedure: About 10 mg of the crystal form was accurately weighed and added to a dry and clean glass flask, spread into a thin layer, covered with aluminum foil, pierced small holes and placed under the influence factor test conditions and under accelerated conditions. Samples placed under illumination (visible light 1200000 Lux, UV 200 W) conditions were placed in clear glass flasks, fully exposed, and samples used for XRPD detection were placed separately.
After the samples were removed at the time point, the cover was covered, and the flask was sealed using sealing film, and stored in −20° C. refrigerator. When preparing the sample, the sample was removed from the refrigerator, restored to room temperature; 10 mL of 80% ACN was added, and the sample was dissolved by sonication for 2 min to obtain a solution with a concentration of about 1 mg/mL, then the liquid phase was used for injection analysis, and the detection results were compared with the initial detection results on day 0.
Preparation of standard solution on day 0: About 10 mg of the crystal was weighed and added to a 10 mL volumetric flask, dissolved with 80% ACN and the volume was fixed to the scale.

With `COc1cccc(C(CN)NC(=O)c2cc(-c3ccc4[nH]nc(C)c4c3)ccn2)c1.Cl.Cl` (stereo not shown) the Content ([1]; 0 day) was 99.5%, the “Impurity at relative retention time (RRT) 0.66” value ([1]; 0 day) was 0.06% and the “Impurity at relative retention time (RRT) 0.85” value ([1]; 0 day) was 0.34%. For the same compound, the “Impurity at relative retention time (RRT) 0.90” value ([1]; 0 day) was 0.02%, the “Impurity at relative retention time (RRT) 1.64” value ([1]; 0 day) was 0.06% and the Total impurities ([1]; 0 day) was 0.46%. For the same compound, the Content ([1]; 25° C./92.5% RH, 1 month) was 98.9%, the “Impurity at relative retention time (RRT) 0.66” value ([1]; 25° C./92.5% RH, 1 month) was 0.06% and the “Impurity at relative retention time (RRT) 0.85” value ([1]; 25° C./92.5% RH, 1 month) was 0.32%. For the same compound, the “Impurity at relative retention time (RRT) 0.90” value ([1]; 25° C./92.5% RH, 1 month) was 0.03%, the “Impurity at relative retention time (RRT) 1.64” value ([1]; 25° C./92.5% RH, 1 month) was 0.05% and the Total impurities ([1]; 25° C./92.5% RH, 1 month) was 0.43%. The Content ([1]; 60° C., 1 month) was 99.6%, the “Impurity at relative retention time (RRT) 0.66” value ([1]; 60° C., 1 month) was 0.06% and the “Impurity at relative retention time (RRT) 0.85” value ([1]; 60° C., 1 month) was 0.31%. For the same compound, the “Impurity at relative retention time (RRT) 0.90” value ([1]; 60° C., 1 month) was 0.06%, the “Impurity at relative retention time (RRT) 1.64” value ([1]; 60° C., 1 month) was 0.04% and the Total impurities ([1]; 60° C., 1 month) was 0.43%. For the same compound, the Content ([1]; Illumination, 10 days) was 97.6%, the “Impurity at relative retention time (RRT) 0.66” value ([1]; Illumination, 10 days) was 0.09% and the “Impurity at relative retention time (RRT) 0.85” value ([1]; Illumination, 10 days) was 0.31%. For the same compound, the “Impurity at relative retention time (RRT) 0.90” value ([1]; Illumination, 10 days) was 0.02%, the “Impurity at relative retention time (RRT) 1.64” value ([1]; Illumination, 10 days) was 0.05% and the Total impurities ([1]; Illumination, 10 days) was 0.51%. The “stability in influence factor test (conclusion in words)” value ([1]; illumination, high temperature and high humidity) was “stable”, the Crystal form ([2]; 0 day) was “Crystal form A” and the “solid stability (conclusion in words)” value ([2]; 92.5% high humidity conditions) was “crystal transformation will occur”. For the same compound, the Crystal form ([2]; High humidity (relative humidity 75%, open), 5 days) was “Crystal form A”, the Crystal form ([2]; High humidity (relative humidity 75%, open), 10 days) was “Crystal form A” and the Crystal form ([2]; High humidity (relative humidity 92.5%, open), 5 days) was “Crystal form C”. For the same compound, the Crystal form ([2]; High humidity (relative humidity 92.5%, open), 10 days) was “Crystal form C”, the Crystal form ([2]; High temperature (60° C., open), 5 days) was “Crystal form A” and the Crystal form ([2]; High temperature (60° C., open), 10 days) was “Crystal form A”. The Crystal form ([2]; High temperature and humidity (40° C. relative humidity 75%, open), 5 days) was “Crystal form A”, the Crystal form ([2]; High temperature and humidity (40° C. relative humidity 75%, open), 10 days) was “Crystal form A” and the Crystal form ([2]; High temperature and humidity (60° C. relative humidity 75%, open), 5 days) was “Crystal form A”. For the same compound, the Crystal form ([2]; High temperature and humidity (60° C. relative humidity 75%, open), 10 days) was “Crystal form A”, the Crystal form ([2]; Illumination (total illuminance = 1.2 × 10^6 Lux·hr/near UV = 200 w·hr/m^2, open), 5 days) was “Crystal form A” and the Crystal form ([2]; Illumination (total illuminance = 1.2 × 10^6 Lux·hr/near UV = 200 w·hr/m^2, open), 10 days) was “Crystal form A”. For the same compound, the “solid stability (conclusion in words)” value ([2]; high temperature, 75% humidity and strong illumination conditions) was “good stability”.
